Experimental data from patent US20110039947A1, “SURFACE-MODIFIED NANOPARTICLES” (3M Innovative Properties Company, priority 2008, published 2011).

Assay: Pharmaceutical performance: Aerolizer DPI with Next Generation Pharmaceutical Impactor (NGI)
Type: physicochemical
Details: nominally 2 mg powder, NGI at 60 lpm for 4 seconds, respirable limit 4.5 micrometers
Protocol: Samples of micronized lactose and micronised budesonide powder were tested in addition to testing samples of nanoparticle-modified lactose and nanoparticle-modified budesonide powders. The NGI was coupled with a USP throat (United States Pharmacopeia, USP 24 <601>Aerosols, Metered Dose Inhalers, and Dry Powder Inhalers) and operated at a volumetric flow rate of 60 liters per minute (lpm) for a collection time of four seconds. A suitable coupler was affixed to the USP throat to provide an air-tight seal between the DPI device and the throat. For all testing, the stage cups of the NGI were coated with a surfactant to prevent particle bounce and re-entrainment. The amount of lactose or budesonide collected on each component of the NGI testing apparatus was determined by rinsing the component with a measured volume of an appropriate solvent and subjecting the rinsed material to high pressure liquid chromatography (HPLC) analysis with charged aerosol detection to determine lactose or budesonide concentration. Data that was returned from HPLC analysis was analyzed to determine the average amount of drug collected on the DPI and capsule, the USP throat, and on each component of the NGI per delivered dose. Using the individual component values, the respirable fraction and delivery efficiency were calculated for each powder sample. […]

O.OC[C@H]1O[C@@H](O[C@H]2[C@H](O)[C@@H](O)[C@@H](O)O[C@@H]2CO)[C@H](O)[C@@H](O)[C@H]1O [Comparative Example C4, α-Lactose monohydrate]
% Delivery Efficiency: 34% | % Respirable Fraction: 63%
